Laboratory results taken from ChEMBL document CHEMBL5356934, “Antibacterial activities of anthraquinones: structure-activity relationships and action mechanisms” (RSC Med Chem, 2023).
Values after ≈ are worked out from the molar mass of the structure shown.

System: Mycobacterium tuberculosis variant bovis
Test: Antimycobacterial activity against Mycobacterium bovis assessed as reduction in bacterial growth
Format: functional

SMILES: Cc1cc(O)c2c(c1)C(=O)c1cccc(O)c1C2=O [CHRYSOPHANOL]
- MIC: 64 µg/mL (≈ 252 µM)
